Test results as given in patent US8916702B2 (priority 2012, dated 2014).
Like-named read-outs stand apart in the source and are kept apart here.

Tested on: HCV pseudoparticles (genotype 1a HCV E1 and E2 envelope, H77C isolate)
Test: microbe, parasite or virus in culture
Assay type: cell-based
Settings: Hepatitis C virus
[1] = Huh-7, 48 h, read-out: Activity (EC50 class), HCV pseudoparticle infection of Huh7 cells, luciferase 2 days after infection, EC50 expressed as class A/B
[2] = Huh-7, read-out: Activity (EC50 class), HCV pseudoparticles (genotype 1a, H77C) in Huh7 cells, EC50 expressed as class A/B
[3] = Huh-7, 48 h, HCV pseudoparticle infection of Huh7 cells, luciferase 2 days after infection, average of duplicates

Compound	EC50 [1]	EC50 [2]	further results
O=C(NC[C@H](NC(=O)c1ccc(Nc2nc(NC3(c4ccc(Cl)cc4)CC3)nc(OCC(F)(F)F)n2)cc1)C(=O)O)C(=O)NC1(C2CCCCC2)CC1 [Compound 1472]	0.01 to 10 nM	–	–
O=C(NC/C(=N/C(=O)c1ccc(Nc2nc(NC3(c4ccc(Cl)cc4)CC3)nc(OCC(F)(F)F)n2)cc1)C(=O)O)C(=O)Nc1ccc(NCc2ccccc2)cc1 [Compound 3158]	–	0.01 to 10 nM	–
CC(CNC(=O)C(=O)NC[C@H](NC(=O)c1ccc(Nc2nc(NC3(c4ccc(Cl)cc4)CC3)nc(OCC(F)(F)F)n2)cc1)C(=O)O)c1ccccc1 (some centres unmarked) [Compound 1395]	0.01 to 10 nM	–	–
COC(=O)[C@H](CNC(=O)C(=O)NCc1ccc(OC)cc1)NC(=O)c1ccc(Nc2nc(NC3(c4ccc(Cl)cc4)CC3)nc(OCC(F)(F)F)n2)cc1 [Compound 1153]	0.01 to 10 nM	–	–
CC(C)(CNC(=O)C(=O)Nc1ccccc1-c1ccccc1)CNC(=O)c1ccc(Nc2nc(NC3(c4ccc(Cl)cc4)CC3)nc(OCC(F)(F)F)n2)cc1 [Compound 1572]	0.01 to 10 nM	–	–
CC(C)(CNC(=O)C(=O)Nc1nccs1)CNC(=O)c1ccc(Nc2nc(NC3(c4ccc(Cl)cc4)CC3)nc(OCC(F)(F)F)n2)cc1 [Compound 1547]	0.01 to 10 nM	–	EC50 [3]: 0.06 nM
COC(=O)[C@H](CCNC(=O)C(=O)NC1CCCCC1)NC(=O)c1ccc(Nc2nc(NC3(c4ccc(Cl)cc4)CC3)nc(OCC(F)(F)F)n2)cc1 [Compound 1140]	0.01 to 10 nM	–	–
CC(C)(CNC(=O)C(=O)Nc1ccc(C(F)(F)F)cc1F)CNC(=O)c1ccc(Nc2nc(NC3(c4ccc(Cl)cc4)CC3)nc(OCC(F)(F)F)n2)cc1 [Compound 3409]	–	0.01 to 10 nM	–
CC(C)(CNC(=O)c1ccc(Nc2nc(NC3(c4ccc(Cl)cc4)CC3)nc(OCC(F)(F)F)n2)cc1)NC(=O)C(=O)Nc1cc(F)cc(F)c1 [Compound 3424]	–	0.01 to 10 nM	–
CN(C)CCNC(=O)C(=O)NC[C@@H](NC(=O)c1ccc(Nc2nc(NC3(c4ccc(Cl)cc4)CC3)nc(OCC(F)(F)F)n2)cc1)C(=O)O [Compound 1045]	0.01 to 10 nM	–	–
COC(=O)[C@H](CCNC(=O)C(=O)Nc1ccc(-c2cc[nH]n2)cc1)NC(=O)c1ccc(Nc2nc(NC3(c4ccc(Cl)cc4)CC3)nc(OCC(F)(F)F)n2)cc1 [Compound 3310]	–	0.01 to 10 nM	EC50 (Huh-7, 48 h, HCV pseudoparticles (genotype 1a, H77C) in Huh7 cells, average of duplicate, luciferase 2 days after infection): 2.15 nM
COC(=O)[C@H](CCNC(=O)C(=O)Nc1ccc(N2CCOCC2)cc1)NC(=O)c1ccc(Nc2nc(NC3(c4ccc(Cl)cc4)CC3)nc(OCC(F)(F)F)n2)cc1 [Compound 3112]	–	0.01 to 10 nM	–
CN(C(=O)C(=O)NCC(C)(C)CNC(=O)c1ccc(Nc2nc(NC3(c4ccc(Cl)cc4)CC3)nc(OCC(F)(F)F)n2)cc1)c1cccc(F)c1 [Compound 1578]	0.01 to 10 nM	–	–
COC(=O)C(CNC(=O)C(=O)NC1CCN(C(=O)OC(C)(C)C)CC1)NC(=O)c1ccc(Nc2nc(NC3(c4ccc(Cl)cc4)CC3)nc(OCC(F)(F)F)n2)cc1 (centres unmarked) [Compound 1049]	0.01 to 10 nM	–	–
O=C(NCCCCNC(=O)c1ccc(Nc2nc(NC3(c4ccc(Cl)cc4)CC3)nc(OCC(F)(F)F)n2)cc1)C(=O)Nc1cc(F)cc(F)c1 [Compound 3396]	–	0.01 to 10 nM	–
O=C(NC[C@H](NC(=O)c1ccc(Nc2nc(NC3(c4ccc(Cl)cc4)CC3)nc(OCC(F)(F)F)n2)cc1)C(=O)O)C(=O)Nc1cccc(S(=O)(=O)c2ccccc2)c1 [Compound 3757]	–	–	EC50 (Huh-7, 48 h, read-out: Activity (EC50 class), HCV pseudoparticles, Huh7 cells, luciferase 2 days after infection, average of duplicates): 0.01 to 10 nM
O=C(NCc1c(F)cccc1F)C(=O)NC[C@H](NC(=O)c1ccc(Nc2nc(NC3(c4ccc(Cl)cc4)CC3)nc(OCC(F)(F)F)n2)cc1)C(=O)O [Compound 1170]	0.01 to 10 nM	–	–
CC(C)(CNC(=O)C(=O)Nc1ccc(-c2csnn2)cc1)CNC(=O)c1ccc(Nc2nc(NC3(c4ccc(Cl)cc4)CC3)nc(OCC(F)(F)F)n2)cc1 [Compound 1598]	0.01 to 10 nM	–	–
COC(=O)[C@H](CNC(=O)C(=O)Nc1ccc(C(F)(F)F)cc1)NC(=O)c1ccc(Nc2nc(NC3(c4ccc(Cl)cc4)CC3)nc(OCC(F)(F)F)n2)cc1 [Compound 1255]	0.01 to 10 nM	–	EC50 [3]: 1.1 nM
COc1ccc(NC(=O)C(=O)NCC(C)(C)CNC(=O)c2ccc(Nc3nc(NC4(c5ccc(Cl)cc5)CC4)nc(OCC(F)(F)F)n3)cc2)c(OC)n1 [Compound 3077]	–	0.01 to 10 nM	–
